Where a name gives a salt, the structure may show the parent alone.
Assays:
[1] = tested on: patients with high-risk MF; experiment: Phase 1/2A clinical trial of Compound 1 in myelofibrosis (Example 1); type: in vivo, human
Description: A multi-center, open-label study evaluating the safety, tolerability, steady-state pharmacokinetics and pharmacodynamics of Compound 1 administered orally once daily in patients with high-risk MF, including primary myelofibrosis (PMF), post-polycythemia vera myelofibrosis (PPV-MF), and post-essential thrombocythemia myelofibrosis (PET-MF) (collectively referred to as ‘MF’) was initiated as a Phase 1/2A study, and was expanded to a Phase 2b study.
The Phase 1/2A portion of the study assessed: the safety of the original starting dose, 0.25 mg/kg/d; an 85-day duration of treatment with a subsequent washout period of up to 28 days; and, pharmacokinetic and drug concentration measurements. […] With transition to a Phase 2b study, changes supported by the earlier pharmacokinetic and pharmacodynamic studies and safety assessments were implemented, including: an increased starting dose of 0.5 mg/kg/d with larger titration increments; a 168-day (24 week) duration of treatment, with continuous dosing via removal of the washout period; elimination of PK and drug concentration sampling; and, a reduced visit schedule.
This study was conducted at multiple sites. Up to 50 patients, eighteen years of age or older, with high-risk myelofibrosis were treated. The primary objectives included safety and tolerability, pharmacokinetics (PK; Phase 1/2A only) and spleen volume reduction (SVR). […] Key inclusion criteria included: high- or intermediate-2 risk myelofibrosis; per the Investigator's judgment have failed (refractory or resistant to, inadequately controlled by or intolerant of), or are not a candidate for, available approved therapy including ruxolitinib; platelet count≥100K/μL; and, circulating blasts ≤10%.
In the Phase 1/2a portion of the study, patients started at the presumed sub-therapeutic dose of 0.25 mg/kg/d. Dose-adjustments were made weekly (the lifespan of a human platelet) with dose-titration, either upward or downward, contingent on platelet values at the time of evaluation. Upward titrations were made in increments of 0.125 or 0.0625 mg/kg/d as shown below. Downward titrations were made in decrements of 50% of the current dose. […] The titration target platelet count expected to be associated with most efficacious therapeutic effect was ≥50,000 to <100,000/μL (50-100×10^9/L). The Phase 1/2a titration and re-challenge rules based on weekly evaluation of platelet counts are noted below in Table 1.
All but one patient had received one or more prior treatments including ruxolitinib. 48% had PMF, 33% PET-MF, 19% PPV-MF. The median patient age was 65 years (48-89) with 58% males. 48% were classified as high risk (IPSS), the remainder, intermediate risk-2. […] A substantial fraction of the patients had ≥3 mutations. Patients were treated daily for 12 weeks, in accordance with above starting dose and titration rules, followed by a washout period of up to 28 days. Starting platelet counts ranged from about 141 to about 1309 k/μL. Bone marrow biopsies and imaging studies of the abdomen were conducted prior to treatment and during the washout period after 12 weeks of dosing. Grading of myelofibrosis was performed centrally using the 2016 revised World Health Organization classification of myeloid neoplasia (Arber et al., 2016); image reading was also performed centrally. The Myeloproliferative Neoplasm Symptom Assessment Form (MPN-SAF) was self-administered at Baseline and weekly from Day 0 through the End of Study (EoS) Visit. Total symptom scores were derived from this tool. Patients for whom clinical benefit was demonstrable could resume treatment for additional 12-week cycles.

[2] = tested on: patients with MF; experiment: Safety / adverse events in the clinical studies (31 subjects); type: in vivo
Description: Safety. […] Four SAEs attributed to Compound 1 (all Grade 3), including painful splenomegaly, headache, nausea and vomiting, and heart failure. There were 139 AEs of all grades attributed to Compound 1. The most common AEs across the 31 subjects from both of the above studies were thrombocytopenia (11 subjects, 35%), anemia (3 subjects, 10%) and nausea (1, 3%). The most common grade 3/4 AEs attributed to Compound 1 were Anemia (6 subjects, 19%) and neutropenia (3 subjects, 10%).
Management of Study Toxicities. Adverse event intensity will be evaluated using the National Cancer Institute (NCI) Common Terminology Criteria for Adverse Events (CTCAE) version 4.03, published 14 Jun. 2010.

[3] = tested on: somatic mutations in myeloid neoplasm genes (JAK2, CALR, MPL, ASXL1 etc.); experiment: Sequencing of somatic mutations, variant allele frequency (VAF) in treated patients (Example 3); type: in vivo, human
Description: The following characterize the sequencing protocol: • Samples: Germline (buccal or hair) and “Tumor” (bone marrow, peripheral blood, granulocytes) • Target enrichment: 11,736 hybridization probes in IDT AML panel targeting 261 genes (˜6300 exons) recurrently mutated in myeloid neoplasms • Illumina sequencing: 2×150 bp paired-end sequencing; ˜10 million pairs sequenced per sample • Aiming for sequencing depth >500; Actual: >1000 for >90% of samples • Analysis: Burrows-Wheeler alignment (BWA)=>VARSCAN2 genotyper=>IGV for CALR, etc. • Cutoffs for somatic calls: Sequencing Depth: >20 Mutant (or Variant) Allele Frequency (VAF): >15% • Annotation: All calls submitted to CADD (Combined Annotation Dependent Depletion) at University of Washington • CADD score cutoff >20 identifies the top 1% of the most deleterious mutations

[4] = 13 patients with biopsies, Day 0 to Day 84 or EoT
[5] = of the 3 with Hb>10 g/dL at day 0, day 84
[6] = of the 6 transfusion-independent patients with Hb<10 g/dL
[7] = of the 9 transfusion-dependent patients, day 84

CN1CCN(C(=O)[C@H](CCCN[C@@H]2C[C@H]2c2ccc(F)cc2)NC(=O)c2ccc(-n3ccnn3)cc2)CC1 [Compound 1, N-[(2S)-5-{[(1R, 2S)-2-(4-fluorophenyl)cyclopropyl]amino}-1-(4-methylpiperazin-1-yl)-1-oxopentan-2-yl]-4-(1H-1,2,3-triazol-1-yl)benzamide, bis-tosylate salt]
patients whose bone marrow fibrosis progressed by 1 Grade [1, 4]: 23%
patients with a stable bone marrow fibrosis score [1, 4]: 62%
patients with bone marrow fibrosis improvement of ≥1 grade [1, 4]: 15%
28 days expressed in half-lives of the drug ([1]; at the doses used in this study): > 10 half-lives
spleen volume response (SVR) and total symptom score (TSS) compared with Best Available Treatment (BAT) ([1]; day 0 to day 84, BAT as in PERSIST-2 trial, FIG. 3): outperformed the BAT
effect on myelofibrosis symptoms ([1]; evaluable patients N=14, preliminary analysis): profound effect
range of total daily dose needed to achieve a platelet count in the target range ([1]; excluding highest and lowest doses): 53 to 90 mg
mean total daily dose needed to achieve a platelet count in the target range ([1]; excluding highest and lowest doses (4 mg and 100 mg), target 50,000-75,000 platelets per microliter, S.D. 13.8): 78.3 mg
mean therapeutic dose per body weight ([1]; first sixteen patients, assuming an average weight of 75 kg): 0.85 mg/kg/day
overall efficacy on spleen volumes and symptom scores ([1]; heterogeneous population of MF patients with limited therapeutic options): effective in reducing spleen volumes and substantially improving symptom scores in a majority of patients
improvements in symptom scores ([1]; human, in vivo): generally dose-dependent and rapid
levels of CCL3, IL-6, IL-10, IL-33, IL-28A, IFNβ, IFNα, IFNγ ([1]; in the course of treatment): not elevated in any patient
patients with improved Hb (increase of Hb>1 g/dL) [1, 5]: 1 patients
patients with worsened Hb (decrease of Hb>1 g/dL) [1, 5]: 2 patients
patients who remained stable (Hb) [1, 6]: 3 patients
patients who worsened (became transfusion dependent or Hb drop by >1 g/dL) [1, 6]: 2 patients
patients with improved Hb [1, 6]: 1 patients
patients who became transfusion-independent and had improved Hb of >1 g/dL ([1]; of the 9 transfusion-dependent patients (Hb<10 g/dL), day 84): 1 patients
patients who maintained stable transfusion frequency [1, 7]: 8 patients
patients with increased transfusion frequency [1, 7]: one
lymphocytes counts ([1]; on treatment): unchanged
monocyte counts ([1]; on treatment): generally modestly elevated
peripheral granulocyte counts ([1]; on treatment): lower
platelet counts ([1]; on treatment): reduced platelet counts in all patients
mean dose needed to achieve and safely maintain the target platelet count (therapeutic dose) ([1]; re-analysis of first sixteen patients): 63.8 mg/day
platelet counts after cessation of treatment ([1]; reversibility of the anti-thrombopoietic effect): rebounded robustly
percent of F-cells (fetal hemoglobin containing erythrocytes) ([1]; six patients, FIG. 10): reduced the percent of F-cells
patients with reduction in symptom score (MPN-10) ([1]; week 12): 79%
patients with reduction in symptom score by ≥50% ([1]; week 12): 21%
inflammatory cytokine S100A9 ([1]; week 12, FIG. 4): generally decreased
inflammatory cytokine RANTES ([1]; week 12, FIG. 5): generally decreased
inflammatory cytokine IL-8 ([1]; week 12, FIG. 6): generally decreased
circulating growth factor VEGF ([1]; week 12, FIG. 7): generally decreased
circulating growth factor PDGF-BB ([1]; week 12, FIG. 8): generally decreased
patients with a decrease in spleen volume ([1]; week 12, evaluable N=14): 50%
patients with a decrease in spleen volume ([1]; week 24): 75%
patients with a decrease in spleen volume by 35% ([1]; week 24): 12.5%
patients with a decrease in symptom score ([1]; week 24): 89%
patients with a decrease in symptom score by ≥50% ([1]; week 24): 44%
patients with improved scores of fatigue ([1]; within 14 days, at the lowest two doses): 8 of the first 16 patients
subjects with grade 3/4 Anemia attributed to Compound 1 ([2]; 31 subjects): 19%
subjects with grade 3/4 neutropenia attributed to Compound 1 ([2]; 31 subjects): 10%
subjects with anemia (most common AEs) ([2]; 31 subjects from both studies): 10%
subjects with nausea (most common AEs) ([2]; 31 subjects from both studies): 3%
subjects with thrombocytopenia (most common AEs) ([2]; 31 subjects from both studies): 35%
tolerability ([2]; MF patients): well tolerated
SAEs attributed to Compound 1 ([2]; all Grade 3: painful splenomegaly, headache, nausea and vomiting, heart failure): Four
AEs of all grades attributed to Compound 1 ([2]; human, in vivo): 139
deaths or dose-limiting toxicities ([2]; throughout the course of the study): no deaths or dose-limiting toxicities
patients showing a decrease in some or all somatic mutations ([3]; 22 patients): 32%
patients with increased VAFs ([3]; 22 patients): 14%
patients with stable VAFs ([3]; 22 patients): 55%
progression to AML ([3]; human, in vivo): No progression to AML
new mutations ([3]; patients followed up to 550+ days): No new mutations identified
